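48-hour exposure; five concentrations; linearly interpolated endpoints. At the GI50, growth is halved.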 The source made the active and inactive calls. Cut-off read from the data, not from the text of the source: active = GI50 up to about 1.1 µM and inactive = higher.
Assays:
Assay in all cases: NCI-60 cell line screen, 48 h
786-0 = test system: 786-0
A549 = test system: A549
ACHN = test system: ACHN
CCRF-CEM = test system: CCRF-CEM
COLO 205 = test system: COLO 205
DLD-1 = test system: DLD-1
DMS-114 = test system: DMS-114
DMS-273 = test system: DMS-273
EKVX = test system: EKVX
HCC 2998 = test system: HCC 2998
HCT-116 = test system: HCT-116
HCT-15 = test system: HCT-15
HL-60 = test system: HL-60
HOP-18 = test system: HOP-18
HOP-62 = test system: HOP-62
HOP-92 = test system: HOP-92
HT-29 = test system: HT-29
IGROV-1 = test system: IGROV-1
K562 = test system: K562
KM-20L2 = test system: KM-20L2
KM12 = test system: KM12
LXFL 529 = test system: LXFL 529
M14 = test system: M14
M19-MEL = test system: M19-MEL
MOLT-4 = test system: MOLT-4
Malme-3M = test system: Malme-3M
NCI-H226 = test system: NCI-H226
NCI-H23 = test system: NCI-H23
NCI-H460 = test system: NCI-H460
NCI-H522 = test system: NCI-H522
OVCAR-4 = test system: OVCAR-4
OVCAR-5 = test system: OVCAR-5
OVCAR-8 = test system: OVCAR-8
RPMI-8226 = test system: RPMI-8226
RXF 393 = test system: RXF 393
RXF 631 = test system: RXF 631
SF-268 = test system: SF-268
SF-295 = test system: SF-295
SF-539 = test system: SF-539
SK-MEL-28 = test system: SK-MEL-28
SK-MEL-2 = test system: SK-MEL-2
SK-MEL-5 = test system: SK-MEL-5
SK-OV-3 = test system: SK-OV-3
SN12C = test system: SN12C
SNB-19 = test system: SNB-19
SNB-75 = test system: SNB-75
SNB-78 = test system: SNB-78
SR = test system: SR
SW-620 = test system: SW-620
U-251 = test system: U-251
UACC-257 = test system: UACC-257
UACC-62 = test system: UACC-62
UO-31 = test system: UO-31
A498 = test system: A498
CAKI-1 = test system: CAKI-1
LOX IMVI = test system: LOX IMVI
TK-10 = test system: TK-10
OVCAR-3 = test system: OVCAR-3
XF498 = test system: XF498

SMILES: N/N=c1\c2ccccc2c2cc3c(cc12)/c(=N/N)c1ccccc13
- GI50 (786-0): > 100 µM (inactive)
- GI50 (A549): > 100 µM (inactive)
- GI50 (ACHN): > 100 µM (inactive)
- GI50 (CCRF-CEM): > 100 µM (inactive)
- GI50 (COLO 205): > 100 µM (inactive)
- GI50 (DLD-1): > 100 µM (inactive)
- GI50 (DMS-114): > 100 µM (inactive)
- GI50 (DMS-273): > 100 µM (inactive)
- GI50 (EKVX): > 100 µM (inactive)
- GI50 (HCC 2998): > 100 µM (inactive)
- GI50 (HCT-116): > 100 µM (inactive)
- GI50 (HCT-15): > 100 µM
- GI50 (HL-60): > 100 µM (inactive)
- GI50 (HOP-18): > 100 µM (inactive)
- GI50 (HOP-62): > 100 µM (inactive)
- GI50 (HOP-92): > 100 µM (inactive)
- GI50 (HT-29): > 100 µM (inactive)
- GI50 (IGROV-1): > 100 µM (inactive)
- GI50 (K562): > 100 µM (inactive)
- GI50 (KM-20L2): > 100 µM (inactive)
- GI50 (KM12): > 100 µM (inactive)
- GI50 (LXFL 529): > 100 µM (inactive)
- GI50 (M14): > 100 µM (inactive)
- GI50 (M19-MEL): > 100 µM (inactive)
- GI50 (MOLT-4): > 100 µM (inactive)
- GI50 (Malme-3M): > 100 µM (inactive)
- GI50 (NCI-H226): > 100 µM (inactive)
- GI50 (NCI-H23): > 100 µM (inactive)
- GI50 (NCI-H460): > 100 µM (inactive)
- GI50 (NCI-H522): > 100 µM (inactive)
- GI50 (OVCAR-4): > 100 µM (inactive)
- GI50 (OVCAR-5): > 100 µM (inactive)
- GI50 (OVCAR-8): > 100 µM (inactive)
- GI50 (RPMI-8226): > 100 µM (inactive)
- GI50 (RXF 393): > 100 µM (inactive)
- GI50 (RXF 631): > 100 µM (inactive)
- GI50 (SF-268): > 100 µM (inactive)
- GI50 (SF-295): > 100 µM (inactive)
- GI50 (SF-539): > 100 µM (inactive)
- GI50 (SK-MEL-28): > 100 µM (inactive)
- GI50 (SK-MEL-2): > 100 µM (inactive)
- GI50 (SK-MEL-5): > 100 µM (inactive)
- GI50 (SK-OV-3): > 100 µM (inactive)
- GI50 (SN12C): > 100 µM (inactive)
- GI50 (SNB-19): > 100 µM (inactive)
- GI50 (SNB-75): 59.4 µM (inactive)
- GI50 (SNB-78): > 100 µM (inactive)
- GI50 (SR): 76.2 µM (inactive)
- GI50 (SW-620): > 100 µM (inactive)
- GI50 (U-251): > 100 µM (inactive)
- GI50 (UACC-257): > 100 µM (inactive)
- GI50 (UACC-62): > 100 µM (inactive)
- GI50 (UO-31): > 100 µM (inactive)

SMILES: O=C1/C(=N\O)S(=O)(=O)c2ccccc21
- GI50 (786-0): > 100 µM (inactive)
- GI50 (A498): > 100 µM (inactive)
- GI50 (A549): > 100 µM (inactive)
- GI50 (ACHN): > 100 µM (inactive)
- GI50 (CAKI-1): > 100 µM (inactive)
- GI50 (CCRF-CEM): > 100 µM (inactive)
- GI50 (COLO 205): > 100 µM (inactive)
- GI50 (DLD-1): > 100 µM (inactive)
- GI50 (DMS-114): > 100 µM (inactive)
- GI50 (DMS-273): > 100 µM (inactive)
- GI50 (HCC 2998): > 100 µM (inactive)
- GI50 (HCT-116): > 100 µM (inactive)
- GI50 (HCT-15): > 100 µM
- GI50 (HL-60): > 100 µM (inactive)
- GI50 (HOP-18): > 100 µM (inactive)
- GI50 (HOP-62): > 100 µM (inactive)
- GI50 (HOP-92): > 100 µM (inactive)
- GI50 (HT-29): 92.7 µM (inactive)
- GI50 (IGROV-1): > 100 µM (inactive)
- GI50 (K562): > 100 µM (inactive)
- GI50 (KM-20L2): 59.2 µM (inactive)
- GI50 (KM12): > 100 µM (inactive)
- GI50 (LOX IMVI): > 100 µM (inactive)
- GI50 (LXFL 529): > 100 µM (inactive)
- GI50 (M14): > 100 µM (inactive)
- GI50 (M19-MEL): > 100 µM (inactive)
- GI50 (MOLT-4): > 100 µM (inactive)
- GI50 (Malme-3M): > 100 µM (inactive)
- GI50 (NCI-H226): > 100 µM (inactive)
- GI50 (NCI-H460): > 100 µM (inactive)
- GI50 (NCI-H522): > 100 µM (inactive)
- GI50 (OVCAR-4): > 100 µM (inactive)
- GI50 (OVCAR-5): > 100 µM (inactive)
- GI50 (OVCAR-8): > 100 µM (inactive)
- GI50 (RPMI-8226): > 100 µM (inactive)
- GI50 (RXF 393): > 100 µM (inactive)
- GI50 (RXF 631): > 100 µM (inactive)
- GI50 (SF-268): > 100 µM (inactive)
- GI50 (SF-295): > 100 µM (inactive)
- GI50 (SF-539): > 100 µM (inactive)
- GI50 (SK-MEL-2): > 100 µM (inactive)
- GI50 (SK-MEL-5): > 100 µM (inactive)
- GI50 (SK-OV-3): > 100 µM (inactive)
- GI50 (SN12C): > 100 µM (inactive)
- GI50 (SNB-19): > 100 µM (inactive)
- GI50 (SNB-75): > 100 µM (inactive)
- GI50 (SNB-78): > 100 µM (inactive)
- GI50 (SR): > 100 µM (inactive)
- GI50 (SW-620): > 100 µM (inactive)
- GI50 (TK-10): > 100 µM (inactive)
- GI50 (U-251): > 100 µM (inactive)
- GI50 (UACC-257): > 100 µM (inactive)
- GI50 (UACC-62): > 100 µM (inactive)
- GI50 (UO-31): > 100 µM (inactive)

SMILES: COc1ccc(-c2cc(=O)c3c(O)c(O)c(OC)cc3o2)cc1O
- GI50 (786-0): > 100 µM (inactive)
- GI50 (A498): > 100 µM (inactive)
- GI50 (A549): > 100 µM (inactive)
- GI50 (ACHN): > 100 µM (inactive)
- GI50 (CAKI-1): > 100 µM (inactive)
- GI50 (CCRF-CEM): > 100 µM (inactive)
- GI50 (COLO 205): > 100 µM (inactive)
- GI50 (DLD-1): > 100 µM (inactive)
- GI50 (DMS-273): > 100 µM (inactive)
- GI50 (EKVX): > 100 µM (inactive)
- GI50 (HCC 2998): > 100 µM (inactive)
- GI50 (HCT-116): > 100 µM (inactive)
- GI50 (HCT-15): > 100 µM
- GI50 (HL-60): > 100 µM (inactive)
- GI50 (HOP-18): > 100 µM (inactive)
- GI50 (HOP-62): > 100 µM (inactive)
- GI50 (HOP-92): > 100 µM (inactive)
- GI50 (HT-29): > 100 µM (inactive)
- GI50 (IGROV-1): > 100 µM (inactive)
- GI50 (K562): > 100 µM (inactive)
- GI50 (KM-20L2): > 100 µM (inactive)
- GI50 (KM12): > 100 µM (inactive)
- GI50 (LOX IMVI): > 100 µM (inactive)
- GI50 (LXFL 529): > 100 µM (inactive)
- GI50 (M14): > 100 µM (inactive)
- GI50 (M19-MEL): > 100 µM (inactive)
- GI50 (MOLT-4): > 100 µM (inactive)
- GI50 (Malme-3M): > 100 µM (inactive)
- GI50 (NCI-H226): > 100 µM (inactive)
- GI50 (NCI-H23): > 100 µM (inactive)
- GI50 (NCI-H460): 57.9 µM (inactive)
- GI50 (NCI-H522): 53.5 µM (inactive)
- GI50 (OVCAR-3): > 100 µM (inactive)
- GI50 (OVCAR-4): > 100 µM (inactive)
- GI50 (OVCAR-5): > 100 µM (inactive)
- GI50 (OVCAR-8): > 100 µM (inactive)
- GI50 (RPMI-8226): > 100 µM (inactive)
- GI50 (RXF 393): > 100 µM (inactive)
- GI50 (RXF 631): 92 µM (inactive)
- GI50 (SF-268): 84.5 µM (inactive)
- GI50 (SF-295): > 100 µM (inactive)
- GI50 (SF-539): > 100 µM (inactive)
- GI50 (SK-MEL-28): > 100 µM (inactive)
- GI50 (SK-MEL-2): > 100 µM (inactive)
- GI50 (SK-MEL-5): > 100 µM (inactive)
- GI50 (SK-OV-3): > 100 µM (inactive)
- GI50 (SN12C): > 100 µM (inactive)
- GI50 (SNB-19): > 100 µM (inactive)
- GI50 (SNB-75): 31.5 µM (inactive)
- GI50 (SR): 44.5 µM (inactive)
- GI50 (SW-620): > 100 µM (inactive)
- GI50 (TK-10): > 100 µM (inactive)
- GI50 (U-251): > 100 µM (inactive)
- GI50 (UACC-257): > 100 µM (inactive)
- GI50 (UACC-62): > 100 µM (inactive)
- GI50 (UO-31): > 100 µM (inactive)
- GI50 (XF498): > 100 µM (inactive)

— ChEMBL document CHEMBL1201862, “PubChem BioAssay data set” (2004)
